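Growth conditions: 96-well plates. Treatment: test compound, 48 hours, 5 concentrations. Analysis: linear interpolation between bracketing concentrations; unreached endpoints set to highest concentration. GI50 is the concentration that inhibits growth by half. TGI is the concentration that stops growth completely.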
Tests used:
Experiment in all cases: NCI-60 cell line screen, 48 h
EKVX NSCLC = test system: EKVX NSCLC
HOP-62 NSCLC = test system: HOP-62 NSCLC
MALME-3M melanoma = test system: MALME-3M melanoma
OVCAR-3 ovarian = test system: OVCAR-3 ovarian
OVCAR-5 ovarian = test system: OVCAR-5 ovarian
RPMI-8226 leukemia = test system: RPMI-8226 leukemia
SF-539 CNS = test system: SF-539 CNS
SK-MEL-28 melanoma = test system: SK-MEL-28 melanoma
SN12C renal = test system: SN12C renal
T-47D breast = test system: T-47D breast

| SMILES | GI50 (EKVX NSCLC) [µM] | TGI (EKVX NSCLC) [µM] | GI50 (HOP-62 NSCLC) [µM] | TGI (HOP-62 NSCLC) [µM] | GI50 (MALME-3M melanoma) [µM] | TGI (MALME-3M melanoma) [µM] | GI50 (OVCAR-3 ovarian) [µM] | TGI (OVCAR-3 ovarian) [µM] | GI50 (OVCAR-5 ovarian) [µM] | TGI (OVCAR-5 ovarian) [µM] | GI50 (RPMI-8226 leukemia) [µM] | TGI (RPMI-8226 leukemia) [µM] | GI50 (SF-539 CNS) [µM] | TGI (SF-539 CNS) [µM] | GI50 (SK-MEL-28 melanoma) [µM] | TGI (SK-MEL-28 melanoma) [µM] | GI50 (SN12C renal) [µM] | TGI (SN12C renal) [µM] | GI50 (T-47D breast) [µM] | TGI (T-47D breast) [µM] |
| --- | --- | --- | --- | --- | --- | --- | --- | --- | --- | --- | --- | --- | --- | --- | --- | --- | --- | --- | --- | --- |
| COC(=O)[C@H](C)NC(=O)NC(=O)NC(=O)CI | 17.5 | 32 | 17.2 | 32.6 | 2.07 | 5.13 | 12.3 | 25.2 | 16.7 | 36 | 3.64 | 18.3 | 15.9 | 30.3 | 14.4 | 29.9 | 19.8 | 39.3 | 7.46 | 32.2 |
| COc1cc2c3c(n(CCCNC(=O)OCC4c5ccccc5-c5ccccc54)c(=O)c2cc1OC)-c1cc2c(cc1/C3=C\CCNC(=O)OCC1c3ccccc3-c3ccccc31)OCO2 | > 50 | > 50 | – | > 24.3 | 45.5 | > 50 | > 44.6 | > 50 | > 19.6 | > 45 | > 26.3 | 48.9 | 35.7 | > 50 | > 50 | > 50 | > 50 | > 50 | > 50 | > 50 |
| COC(C(O)CO)C(O)C(O)C(=O)NNc1ccccc1 (stereo not drawn) | – | > 100 | – | > 100 | – | > 100 | – | > 100 | – | > 100 | – | > 100 | – | 98.3 | – | > 100 | – | > 100 | – | > 100 |
| Oc1cccnc1CN1CCCCC1 | – | > 100 | – | > 100 | – | > 100 | – | > 100 | – | > 100 | – | > 100 | – | > 100 | – | > 100 | – | > 100 | – | > 100 |
| NP(=O)(Oc1c2occc2cc2ccc(=O)oc12)N(CCCl)CCCl (stereo not drawn) | – | > 100 | – | > 100 | – | > 100 | – | > 100 | – | > 100 | – | > 100 | – | > 100 | – | > 100 | – | > 100 | – | > 100 |
| O=C(N/N=C/c1ccc(Cl)cc1)c1ccc(C(F)(F)F)nc1Nc1cccc(C(F)(F)F)c1 | 1.97 | 14.1 | 2.47 | 10.9 | 3.86 | 23 | 1.11 | 6.9 | 3.2 | 13.7 | 1.53 | – | 2.11 | 6.69 | 2.54 | 10.3 | 1.78 | 10.6 | 2.06 | 10.7 |
| COc1ccc(/C=C/c2ccnc3ccccc23)c(OC)c1 | – | > 10 | – | > 10 | – | > 10 | – | > 10 | – | > 10 | – | > 10 | – | > 10 | – | > 10 | – | > 10 | – | > 10 |
| COC1=C(C)C(=O)c2c(c(COC(N)=O)c3n2CC2C3N2C)C1=O (stereo not drawn) | – | 0.376 | – | 0.074 | – | 0.164 | – | 0.0987 | – | 0.324 | – | 0.117 | – | 0.12 | – | 0.173 | – | 0.221 | – | 0.201 |
| Cc1ccc(C(=O)CN(/C=C/C(=O)C(F)(F)F)c2ccc(S(N)(=O)=O)cc2)cc1 | 55.2 | > 100 | > 100 | > 100 | > 100 | > 100 | 42.6 | > 100 | > 100 | > 100 | 29.7 | > 100 | > 100 | > 100 | > 100 | > 100 | > 100 | > 100 | 70.1 | > 100 |

— PubChem BioAssay (NCI)
